Assay results reported in US4788206A, “Pentadieneamides” (Hoffmann-La Roche Inc., priority 1987, dated 1988).

Assays:
[1] = tested on: PAF-Induced Platelet Count Decrease; test: PAF Induced Platelet Count Decrease; format: in vivo, guinea pig; details: for inhibition in vivo at 3 mg/kg: Cavia porcellus, Platelet, read-out: Percent Inhib. of PAF-Induced Platelet Count Decrease, 3 mg/Kg; for inhibition in vivo at 3 mg/kg / Percent Inhib. of PAF-Induced Platelet Count Decrease, 3 mg/Kg: 3 mg/Kg (route not given)
Procedure: PAF Induced Platelet Count Decrease
Male Hartley guinea pigs weighing between 500 and 900 grams were fed standard guinea pig chow and tap water ad libitum. PAF was solubilized in ethanol and stored as a 2 mM stock solution at -70° C. The stock solutuion of PAF was diluted to 1 pM in Tris buffer pH 7.4 and 0.1% BSA for all experiments.
(a) Intravenous Procedure
Guinea pigs were anesthetized with urethane (1.6 g/kg, i.p.). A catheter (PE50) was introduced into the right carotid artery for withdrawing blood. A second catheter PE10) was introduced into the jugular vein for injecting drugs and for administering the PAF challenge (75 ng/kg, i.v.). A control blood sample was obtained and platelets were counted in a whole blood platelet analyzer. PAF was then given and blood samples were taken 15, 30, and 60 seconds after the challenge for platelet counts. Fifteen minutes later, selected concentrations of the test compound were solubilized in DMSO and injected intravenously into a group of 4-6 animals. Only one concentration of antagonist was used in each animal group. Fifteen minutes after drug injection, blood smaples were taken before and 15, 30, and 60 sec after the PAF challenge, and analyzed for platelet number.
Animals were anesthetized with sodium pentobarbital (35 mg/kg. i.p.) and the caritoid artery and jugular vein were cannulated as described above. The cannulae were exteriorized at the base of the neck and the animals were allowed to recover. At least 18 hours after surgery, conscious unrestrained guinea pigs were used in the experiment. The animals were challenged two time with PAF (120 ng/kg. i.v.); the first to establish a consistent response to PAF and the second to serve as a control for the PAF challenge. Blood samples were taken before and 15, 30, and 45 seconds after PAF challenge and platelets were counted. Thirty minutes after the control PAF challenge, the animal were orally dosed with either gum acacia or the test compound. Animals were then challenged with PAF at 1, 3, 5, and 24 hours after the administration of the drug.
Data Analysis and Statistics
The % change, i.e., the difference in platelet number before and after PAF challenge was calculated by: [formula]
Statistical significance (p<0.05) of the difference between the mean PAF control and mean drug treated activity was determined with paried Students's t-test.

[2] = molecular target: T1, PAF Binding, dog platelets (Canis lupus familiaris, UniProt A0A8I3NSH0); test: PAF Binding Assay (inhibition of 3H-PAF binding to washed dog platelets); details: dog platelets, 3H-PAF, 10 minutes at room temperature; read-out: Inhib of PAF Binding IC50
T1 construct: Washed platelets were prepared by resuspending the platelet pellet once with PBS containing 1 mM EDTA; from tissue; host or cells: washed platelets from dog blood
T1 sequence (A0A8I3NSH0 1-343): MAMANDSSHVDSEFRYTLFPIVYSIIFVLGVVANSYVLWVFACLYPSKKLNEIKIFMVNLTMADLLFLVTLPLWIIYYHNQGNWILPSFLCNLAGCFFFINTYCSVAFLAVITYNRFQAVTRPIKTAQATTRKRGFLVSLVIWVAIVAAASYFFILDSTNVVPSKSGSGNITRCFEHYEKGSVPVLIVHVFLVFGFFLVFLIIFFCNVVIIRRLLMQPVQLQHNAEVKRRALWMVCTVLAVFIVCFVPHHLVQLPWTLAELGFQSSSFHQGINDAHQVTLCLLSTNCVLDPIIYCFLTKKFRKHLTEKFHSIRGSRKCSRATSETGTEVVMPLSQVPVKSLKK
In short: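 Washed dog platelets (2×10^7 per tube, in 0.1% BSA-PBS) incubated 10 min at room temperature with 3H-PAF and test analogs. Bound ligand separated by 1 min centrifugation through silicone oil; platelet pellet radioactivity counted by liquid scintillation.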

[3] = tested on: PAF-Induced Bronchoconstriction; test: PAF Induced Bronchoconstriction Assay; format: in vivo, guinea pig; details: for inhibition in vivo at 50 mg/kg: Cavia porcellus, po, 50 mg/Kg p.o., 2-hour pretreatment, read-out: Percent Inhib. of PAF-Induced Bronchoconstriction, 50 mg/Kg p.o.; for Percent Inhib. of PAF-Induced Bronchoconstriction, mg/Kg i.v.: i.v. (dose not given), 1 minute pretreatment, PAF 1.0 μg/kg i.v.
In short: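 Male Hartley guinea pigs, urethane-anesthetized (2 g/kg i.p.), ventilated, with succinylcholine 1.2 mg/kg i.v. and propranolol 0.1 mg/kg i.v. pretreatment. Compound given i.v. 1 min or by oral gavage 2 h before i.v. PAF challenge at 1.0 μg/kg. Peak tracheal pressure rise over baseline compared with control mean gives % inhibition.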

Row | SMILES | inhibition in vivo at 3 mg/kg [1] [%] | IC50 [2] [nM] | inhibition in vivo at 50 mg/kg [3] [%] | Percent Inhib. of PAF-Induced Platelet Count Decrease, 3 mg/Kg [1] | Percent Inhib. of PAF-Induced Bronchoconstriction, mg/Kg i.v. [3] | Percent Inhib. of PAF-Induced Platelet Count Decrease, 3 mg/Kg (1 min) ([1]; 3 mg/Kg, (1 min)) [%] | Percent Inhib. of PAF-Induced Platelet Count Decrease, 30 mg/Kg p.o. [1] [%]
1 | COc1cccc(/C(=C/C=C/C(=O)NCCCCc2cccnc2)c2ccccc2)c1 [(2E,4E)-5-(3-Methoxyphenyl)-5-phenyl-N-[4-(3-pyridinyl)butyl]-2,4-pentadienamide] | 40 | 20 | 13 ± 18 | – | – | – | –
2 | COc1cccc(/C(=C\C=C\C(=O)NCCCCc2cccnc2)c2cccc(F)c2)c1 [(2E,4E)-5-(3-fluorophenyl)-5-(3-methoxyphenyl)-N-[4-(3-pyridinyl)butyl]-2,4-pentadienamide] | – | 25 | 25 ± 14 | inactive | 88 ± 4% | – | –
3 | COc1cccc(/C(=C/C=C/C(=O)NCCCCc2cccnc2)c2cccc(F)c2)c1 [(2E,4Z)-5-(3-fluorophenyl)-5-(3-methoxyphenyl)-N-[4-(3-pyridinyl)butyl]-2,4-pentadienamide] | – | 40 | 1 ± 8 | – | 90 ± 5% | 67 | –
4 | COc1cccc(/C(=C\C=C\C(=O)NCCCCc2cccnc2)c2ccccc2)c1 [(2E,4Z)-5-(3-methoxyphenyl)-5-phenyl-N-[4-(3-pyridinyl)butyl]-2,4-pentadienamide] | – | 35 | 10 ± 10 | inactive | – | – | –
5 | O=C(/C=C/C=C(c1ccccc1)c1ccccc1)NCCCCc1cccnc1 [(E)-5,5-Diphenyl-N-[4-(3-pyridinyl)butyl]-2,4-pentadienamide] | 14 | 55 | 12 ± 1 | – | 35 ± 15% | – | –
6 | COc1cccc(C(=C/C=C/C(=O)NCCCCc2cccnc2)c2cccc(OC)c2)c1 [(E)-5,5-bis (3-methoxyphenyl)-N-[4-(3-pyridinyl)butyl]-2,4-pentadienamide] | 75 | 2 | 31 ± 11 | – | 69 ± 7% | – | 48
7 | O=C(/C=C/C=C(c1cccc(F)c1)c1cccc(F)c1)NCCCCc1cccnc1 [(E)-5,5-bis(3-Fluorophenyl)-N-[4-(3-pyridinyl)butyl]-2,4-pentadienamide] | 61 | 20 | 37 ± 11 | – | 72 ± 16% | – | 58
8 | O=C(/C=C/C=C(c1cccc(Cl)c1)c1cccc(Cl)c1)NCCCCc1cccnc1 [(E)-5,5-bis(3-chlorophenyl)-N-[4-(3-pyridinyl)butyl]-2,4-pentadienamide] | 21 | – | 35 ± 7 | – | 76 ± 14% | – | –
9 | COc1ccc(C(=C/C=C/C(=O)NCCCCc2cccnc2)c2ccc(OC)cc2)cc1 [(E)-5,5-bis(4-Methoxyphenyl)-N-[4-(3-pyridinyl)butyl]-2,4-pentadienamide] | 40 | 25 | 82 ± 12 | – | 92 ± 3% | – | 45
10 | O=C(/C=C/C=C(c1ccc(Cl)cc1)c1ccc(Cl)cc1)NCCCCc1cccnc1 [(E)-5,5-bis(4-chlorophenyl)-N-[4-(3-pyridinyl)butyl]-2,4-pentadienamide] | 0 | 60 | 63 ± 10 | – | 95 ± 2% | – | –
11 | O=C(/C=C/C=C(c1ccc(F)cc1)c1ccc(F)cc1)NCCCCc1cccnc1 [(E)-5,5-bis(4-fluorophenyl)-N-[4-(3-pyridinyl)butyl]-2,4-pentadienamide] | 18 | 40 | 97 ± 1 | – | 91 ± 3% | – | –
12 | O=C(/C=C/C=C(c1ccccc1C(F)(F)F)c1ccccc1C(F)(F)F)NCCCCc1cccnc1 [(E)-5,5-bis[2-(Trifluoromethyl)phenyl]-N-[4-(3-pyridinyl)butyl]-2,4-pentadienamide] | 0 | 80 | – | – | 6 ± 10% | – | –
13 | O=C(/C=C/C=C(c1cccc(C(F)(F)F)c1)c1cccc(C(F)(F)F)c1)NCCCCc1cccnc1 [(E)-5,5-bis[3-(trifluoromethyl)phenyl]-N-[4-(3-pyridinyl)butyl]-2,4-pentadienamide] | 83 | 150 | – | – | inactive | – | –
14 | C[C@H](CCCc1cccnc1)NC(=O)/C=C/C=C(c1ccc(F)cc1)c1ccc(F)cc1 [[R-(E)]-5,5-bis (4-fluorophenyl)-N-[1-methyl-4-(3-pyridinyl)butyl]-2,4-pentadienamide] | 11 | – | 53 ± 11 | – | 70 ± 9% | – | –
15 | C[C@H](CCCc1cccnc1)NC(=O)/C=C/C=C(c1cccc(F)c1)c1cccc(F)c1 [[R-(E)]-5,5-bis(3-fluorophenyl)-N-[1-methyl-4-(3-pyridinyl)butyl]-2,4-pentadienamide] | 17 | – | 91 ± 5 | – | 73 ± 6% | – | –
16 | COc1ccc(C(=C/C=C/C(=O)N[C@H](C)CCCc2cccnc2)c2ccc(OC)cc2)cc1 [[R-(E)]-5,5-bis(4-methoxyphenyl)-N-[1-methyl-4-(3-pyridinyl)butyl]-2,4-pentadienamide] | 85 | – | 97 ± 2 | – | 87 ± 4% | – | 81
17 | COc1ccc(/C(=C/C=C/C(=O)N[C@H](C)CCCc2cccnc2)C2CC2)cc1 [[R-(E,E)]-5-cyclopropyl-5-(4-methoxyphenyl)-N-[1-methyl-4-(3-pyridinyl)butyl]-2,4-pentadienamide] | – | 50 | – | – | 35 ± 5% | – | –
18 | C[C@@H](CCCc1cccnc1)NC(=O)/C=C/C=C(c1cccc(F)c1)c1cccc(F)c1 [[S-(E)]-5,5-bis(3-fluorophenyl)-N-[1-methyl-4-(3-pyridinyl)butyl]-2,4-pentadienamide] | 19 | – | 46 ± 8 | – | 34 ± 7% | – | –
19 | COc1ccc(C(=C/C=C/C(=O)N[C@@H](C)CCCc2cccnc2)c2ccc(OC)cc2)cc1 [[S-(E)]-5,5-bis(4-Methoxyphenyl)-N-[1-methyl-4-(3-pyridinyl)butyl]-2,4-pentadienamide] | 42 | – | 90 ± 6 | – | 42 ± 13% | – | –
20 | CC[C@@H](CCCc1cccnc1)NC(=O)/C=C/C=C(c1ccc(OC)cc1)c1ccc(OC)cc1 [[S-(E)]-N-[1-ethyl-4-(3-pyridinyl)butyl]-5,5-bis (4-methoxyphenyl)-2,4-pentadienamide] | – | 400 | – | – | 44 ± 8% | – | –
21 | CCCCC/C(=C\C=C\C(=O)N[C@@H](C)CCCc1cccnc1)c1ccc(OC)cc1 [[S-(E,E)]-5-(4-methoxyphenyl)-N-[1-methyl-4-(3-pyridinyl)butyl]-2,4-decadienamide] | – | 120 | 25 ± 13 | – | 46 ± 16% | – | –
